Results reported in patent US20200165291A1, “NEUROACTIVE STEROIDS, COMPOSITIONS, AND USES THEREOF” (Sage Therapeutics, Inc., priority 2014, published 2020).
Like-named read-outs stand apart in the source and are kept apart here.

Key:
[1] = molecular target: [35S]-TBPS binding, rat brain cortical membranes (GABA receptor complex); assay: [35S]-TBPS binding (steroid inhibition of TBPS binding); conditions: in the presence of 5 μM GABA, read-out: 35S-TBPS Radioligand Displacement
Experimental: [35S]-t-Butylbicyclophosphorothionate (TBPS) binding assays using rat brain cortical membranes in the presence of 5 μM GABA has been described (Gee et al, J. Pharmacol. Exp. Ther. 1987, 241, 346-353; Hawkinson et al, Mol. Pharmacol. 1994, 46, 977-985; Lewin, A. H et al., Mol. Pharmacol. 1989, 35, 189-194).
Briefly, cortices are rapidly removed following decapitation of carbon dioxide-anesthetized Sprague-Dawley rats (200-250 g). The cortices are homogenized in 10 volumes of ice-cold 0.32 M sucrose using a glass/teflon homogenizer and centrifuged at 1500×g for 10 min at 4° C. The resultant supernatants are centrifuged at 10,000×g for 20 min at 4° C. to obtain the P2 pellets. The P2 pellets are resuspended in 200 mM NaCl/50 mM Na-K phosphate pH 7.4 buffer and centrifuged at 10,000×g for 10 min at 4° C. This washing procedure is repeated twice and the pellets are resuspended in 10 volumes of buffer. Aliquots (100 μL) of the membrane suspensions are incubated with 3 nM [^35S]-TBPS and 5 μL aliquots of test drug dissolved in dimethyl sulfoxide (DMSO) (final 0.5%) in the presence of 5 μM GABA. The incubation is brought to a final volume of 1.0 mL with buffer. Nonspecific binding is determined in the presence of 2 μM unlabeled TBPS and ranged from 15 to 25%. Following a 90 min incubation at room temp, the assays are terminated by filtration through glass fiber filters (Schleicher and Schuell No. 32) using a cell harvester (Brandel) and rinsed three times with ice-cold buffer. Filter bound radioactivity is measured by liquid scintillation spectrometry. Non-linear curve fitting of the overall data for each drug averaged for each concentration is done using Prism (GraphPad). […] The concentration of test compound producing 50% inhibition (IC50) of specific binding and the maximal extent of inhibition (Imax) are determined for the individual experiments with the same model used for the overall data and then the means±SEM.s of the individual experiments are calculated.
Various compounds are or can be screened to determine their potential as modulators of [^35S]-TBPS binding in vitro. These assays are or can be performed in accordance with the above discussed procedures.

[2] = molecular target: T1, recombinant α1β2γ2 GABAA receptors (Homo sapiens, UniProt P14867+P47870); assay: Patch clamp electrophysiology, QPatch, LTK cells; format: cell-based; conditions: 10 μM test article, GABA EC20 = 2 μM, read-out: GABA (α1β2γ2) Qpatch in Ltk, % efficacy at 10 μM
T1 construct: expressed in transfected cells
T1 sequence (P14867 28-456): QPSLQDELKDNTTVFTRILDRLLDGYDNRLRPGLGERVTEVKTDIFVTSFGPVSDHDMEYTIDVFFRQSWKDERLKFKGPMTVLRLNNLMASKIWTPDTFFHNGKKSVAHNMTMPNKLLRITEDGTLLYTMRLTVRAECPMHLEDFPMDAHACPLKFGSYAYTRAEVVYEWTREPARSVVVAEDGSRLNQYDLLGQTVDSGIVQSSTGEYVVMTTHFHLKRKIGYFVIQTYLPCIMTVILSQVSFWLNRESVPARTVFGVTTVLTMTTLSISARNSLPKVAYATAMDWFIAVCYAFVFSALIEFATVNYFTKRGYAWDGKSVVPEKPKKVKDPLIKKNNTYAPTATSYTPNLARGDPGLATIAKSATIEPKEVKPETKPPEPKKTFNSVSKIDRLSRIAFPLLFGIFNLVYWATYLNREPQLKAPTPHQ
T1 sequence (P47870 25-512 limits assumed): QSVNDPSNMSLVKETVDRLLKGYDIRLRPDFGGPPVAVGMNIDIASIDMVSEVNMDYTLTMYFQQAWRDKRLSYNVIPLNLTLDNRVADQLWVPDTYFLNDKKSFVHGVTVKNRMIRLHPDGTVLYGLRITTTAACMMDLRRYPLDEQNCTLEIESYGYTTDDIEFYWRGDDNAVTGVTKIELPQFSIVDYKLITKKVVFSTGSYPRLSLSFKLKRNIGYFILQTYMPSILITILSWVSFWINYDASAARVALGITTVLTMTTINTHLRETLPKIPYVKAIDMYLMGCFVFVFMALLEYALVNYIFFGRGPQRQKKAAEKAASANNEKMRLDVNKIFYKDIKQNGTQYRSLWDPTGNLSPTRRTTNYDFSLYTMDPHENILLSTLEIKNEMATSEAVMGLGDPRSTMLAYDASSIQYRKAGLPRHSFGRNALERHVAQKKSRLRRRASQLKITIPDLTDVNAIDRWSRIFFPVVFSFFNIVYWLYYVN
T1 sequence (P18507 40-475 partner): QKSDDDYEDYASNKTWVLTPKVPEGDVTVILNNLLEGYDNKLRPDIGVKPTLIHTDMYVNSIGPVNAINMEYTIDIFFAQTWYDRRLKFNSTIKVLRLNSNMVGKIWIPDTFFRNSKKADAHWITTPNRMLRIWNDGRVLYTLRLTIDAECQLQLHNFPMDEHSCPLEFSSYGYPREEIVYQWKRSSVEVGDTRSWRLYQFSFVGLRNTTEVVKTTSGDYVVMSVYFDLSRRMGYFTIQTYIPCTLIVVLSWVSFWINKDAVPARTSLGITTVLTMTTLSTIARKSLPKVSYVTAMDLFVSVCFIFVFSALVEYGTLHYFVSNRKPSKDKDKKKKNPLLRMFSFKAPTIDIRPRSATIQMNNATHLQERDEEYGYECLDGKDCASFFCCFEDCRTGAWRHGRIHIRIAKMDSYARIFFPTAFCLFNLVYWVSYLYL

Compound | IC50 [1] | Emax at 10 µM [2] | Emax at 10 µM ([2]; in cremophor)
CC[C@@]1(O)CC[C@H]2[C@H](CC[C@@H]3[C@@H]2CC[C@]2(C)[C@@H](C(=O)Cn4nnnc4C)CC[C@@H]32)C1 [SE-5] | > 500 nM |  | 
CO[C@@H]1C[C@@H]2[C@H](CC[C@]3(C)[C@@H](C(=O)Cn4nccn4)CC[C@@H]23)[C@H]2CC[C@@](C)(O)C[C@H]21 [SL-2] | > 500 nM | 10 to 100% | 
CO[C@@H]1C[C@@H]2[C@H](CC[C@]3(C)[C@@H](C(=O)Cn4nccn4)CC[C@@H]23)[C@H]2CC[C@@](C)(O)C[C@@H]21 [SW-2] | > 500 nM |  | 
CC[C@@]1(O)CC[C@H]2[C@@H](CC[C@@H]3[C@@H]2CC[C@]2(C)[C@@H](C(=O)Cn4nnc(C)n4)CC[C@@H]32)C1 [SP-5] |  | 100 to 500% | 
CCOC[C@@]1(O)CC[C@H]2[C@@H](CC[C@@H]3[C@@H]2CC[C@]2(C)[C@@H](C(=O)Cn4ncnn4)CC[C@@H]32)C1 [SQ-3] |  | > 500% | 
CC[C@@]1(O)CC[C@H]2[C@H](CC[C@@H]3[C@@H]2CC[C@]2(C)[C@@H](C(=O)Cn4ncnn4)CC[C@@H]32)C1 [SE-2] |  | > 500% | 
C[C@]12CC[C@H]3[C@@H](CC[C@@H]4C[C@@](O)(CF)CC[C@@H]43)[C@@H]1CC[C@@H]2C(=O)Cn1cnnn1 [SF-1] | 100 to 500 nM | 100 to 500% | 
CO[C@@H]1C[C@@H]2[C@H](CC[C@]3(C)[C@@H](C(=O)Cn4ccnn4)CC[C@@H]23)[C@H]2CC[C@@](C)(O)C[C@H]21 [SL-1] | > 500 nM | 10 to 100% | 
C[C@]12CC[C@H]3[C@@H](CC[C@H]4C[C@@](O)(CF)CC[C@@H]43)[C@@H]1CC[C@@H]2C(=O)Cn1cnnn1 [SD-4] | > 500 nM | 100 to 500% | 
CCOC[C@@]1(O)CC[C@H]2[C@@H](CC[C@@H]3[C@@H]2CC[C@]2(C)[C@@H](C(=O)Cn4cnnn4)CC[C@@H]32)C1 [SQ-4] |  | 100 to 500% | 
CC[C@@]1(O)CC[C@H]2[C@@H](CC[C@@H]3[C@@H]2CC[C@]2(C)[C@@H](C(=O)Cn4ccnn4)CC[C@@H]32)C1 [SP-1] | > 500 nM |  | 
C[C@@]1(O)CC[C@@H]2[C@H]3CC[C@]4(C)[C@@H](C(=O)Cn5ccnn5)CC[C@H]4[C@@H]3C[C@@H](F)[C@@H]2C1 [SH-1] | > 500 nM |  | 
CCOC[C@@]1(O)CC[C@H]2[C@@H](CC[C@@H]3[C@@H]2CC[C@]2(C)[C@@H](C(=O)Cn4nccn4)CC[C@@H]32)C1 [SQ-2] |  | 100 to 500% | 
C[C@@]1(O)CC[C@H]2[C@H](CC[C@@H]3[C@@H]2CC[C@]2(C)[C@@H](C(=O)Cn4cncn4)CC[C@@H]32)C1 [SA-1] | 100 to 500 nM | 100 to 500% | 
C[C@@]1(O)CC[C@H]2[C@H](CC[C@@H]3[C@@H]2CC[C@]2(C)[C@@H](C(=O)Cn4cc(C#N)nn4)CC[C@@H]32)C1 [SA-20] |  |  | 100 to 500%
C[C@]12CC[C@H]3[C@@H](CC[C@H]4C[C@@](O)(CF)CC[C@@H]43)[C@@H]1CC[C@@H]2C(=O)Cn1ccnn1 [SD-1] | > 500 nM |  | 
CO[C@H]1C[C@H]2[C@@H](CC[C@@H]3[C@@H]2CC[C@]2(C)[C@@H](C(=O)Cn4ccnn4)CC[C@@H]32)C[C@]1(C)O [SU-1] | 100 to 500 nM | 100 to 500% | 
Cc1nnn(CC(=O)[C@H]2CC[C@H]3[C@@H]4CC[C@@H]5C[C@@](O)(C(F)F)CC[C@@H]5[C@H]4CC[C@]23C)n1 [SG-4] |  | 100 to 500% | 
C[C@H]1C[C@H]2[C@@H](CC[C@@H]3[C@@H]2CC[C@]2(C)[C@@H](C(=O)Cn4ccnn4)CC[C@@H]32)C[C@]1(C)O [SZ-1] | 50 to 100 nM | 100 to 500% | 
CC[C@@]1(O)CC[C@H]2[C@@H](CC[C@@H]3[C@@H]2CC[C@]2(C)[C@@H](C(=O)Cn4ncnn4)CC[C@@H]32)C1 [SP-3] |  | 100 to 500% | 
C[C@@]1(O)CC[C@@H]2[C@H]3CC[C@]4(C)[C@@H](C(=O)Cn5nccn5)CC[C@H]4[C@@H]3C[C@@H](F)[C@@H]2C1 [SH-2] | > 500 nM | 100 to 500% | 
COC[C@@]1(O)CC[C@H]2[C@H](CC[C@@H]3[C@@H]2CC[C@]2(C)[C@@H](C(=O)Cn4ccnn4)CC[C@@H]32)C1 [SM-5] | 100 to 500 nM | > 500% | 
CCOC[C@@]1(O)CC[C@H]2[C@@H](CC[C@@H]3[C@@H]2CC[C@]2(C)[C@@H](C(=O)Cn4ccnn4)CC[C@@H]32)C1 [SQ-1] | > 500 nM |  | 
Cc1cnnn1CC(=O)[C@H]1CC[C@H]2[C@@H]3C[C@@H](F)[C@H]4C[C@](C)(O)CC[C@@H]4[C@H]3CC[C@]12C [SV-9] |  | 100 to 500% | 

Compound | IC50 [1] | Emax at 10 µM [2] | Emax at 10 µM ([2]; in cremophor)
CCOC[C@@]1(O)CC[C@H]2[C@H](CC[C@@H]3[C@@H]2CC[C@]2(C)[C@@H](C(=O)Cn4nnc(C)n4)CC[C@@H]32)C1 [SO-2] | > 500 nM |  | 
CO[C@@H]1C[C@@H]2[C@H](CC[C@]3(C)[C@@H](C(=O)Cn4ccnn4)CC[C@@H]23)[C@H]2CC[C@@](C)(O)C[C@@H]21 [SW-1] | > 500 nM | 100 to 500% | 
COC[C@@]1(O)CC[C@H]2[C@H](CC[C@@H]3[C@@H]2CC[C@]2(C)[C@@H](C(=O)Cn4nnc(C)n4)CC[C@@H]32)C1 [SM-4] |  | > 500% | 
Cc1nnn(CC(=O)[C@H]2CC[C@H]3[C@@H]4CC[C@H]5C[C@@](O)(CF)CC[C@@H]5[C@H]4CC[C@]23C)n1 [SD-3] |  | 100 to 500% | 
CCOC[C@@]1(O)CC[C@H]2[C@@H](CC[C@@H]3[C@@H]2CC[C@]2(C)[C@@H](C(=O)Cn4nnc(C)n4)CC[C@@H]32)C1 [SQ-6] |  | 100 to 500% | 
CC[C@@]1(O)CC[C@H]2[C@H](CC[C@@H]3[C@@H]2CC[C@]2(C)[C@@H](C(=O)Cn4cnnn4)CC[C@@H]32)C1 [SE-1] |  | 100 to 500% | 
COC[C@@]1(O)CC[C@H]2[C@H](CC[C@@H]3[C@@H]2CC[C@]2(C)[C@@H](C(=O)Cn4cnnn4)CC[C@@H]32)C1 [SM-1] | 100 to 500 nM | 100 to 500% | 
COC[C@@]1(O)CC[C@H]2[C@H](CC[C@@H]3[C@@H]2CC[C@]2(C)[C@@H](C(=O)Cn4nnnc4C)CC[C@@H]32)C1 [SM-3] |  | > 500% | 
CC[C@@]1(O)CC[C@H]2[C@@H](CC[C@@H]3[C@@H]2CC[C@]2(C)[C@@H](C(=O)Cn4nnnc4C)CC[C@@H]32)C1 [SP-4] | > 500 nM | 10 to 100% | 
CCOC[C@@]1(O)CC[C@H]2[C@@H](CC[C@@H]3[C@@H]2CC[C@]2(C)[C@@H](C(=O)Cn4nnnc4C)CC[C@@H]32)C1 [SQ-5] | > 500 nM |  | 
Cc1cn(CC(=O)[C@H]2CC[C@H]3[C@@H]4CC[C@@H]5C[C@](C)(O)CC[C@@H]5[C@H]4CC[C@]23C)nn1 [SA-5] |  | > 500% | 
CCOC[C@@]1(O)CC[C@H]2[C@H](CC[C@@H]3[C@@H]2CC[C@]2(C)[C@@H](C(=O)Cn4nnnc4C)CC[C@@H]32)C1 [SO-1] |  | 100 to 500% | 
CCO[C@H]1C[C@H]2[C@@H](CC[C@@H]3[C@@H]2CC[C@]2(C)[C@@H](C(=O)Cn4ccnn4)CC[C@@H]32)C[C@]1(C)O [SY-1] | 100 to 500 nM | 100 to 500% | 
C[C@@H]1C[C@H]2[C@@H](CC[C@@H]3[C@@H]2CC[C@]2(C)[C@@H](C(=O)Cn4ccnn4)CC[C@@H]32)C[C@]1(C)O [SN-1] | 50 to 100 nM | 100 to 500% | 
Cc1nnnn1CC(=O)[C@H]1CC[C@H]2[C@@H]3CC[C@@H]4C[C@@](O)(C(F)F)CC[C@@H]4[C@H]3CC[C@]12C [SG-3] |  | 100 to 500% | 
CC[C@@]1(O)CC[C@H]2[C@H](CC[C@@H]3[C@@H]2CC[C@]2(C)[C@@H](C(=O)Cn4nnc(C)n4)CC[C@@H]32)C1 [SE-6] | > 500 nM | 10 to 100% | 
C[C@@]1(O)CC[C@H]2[C@H](CC[C@@H]3[C@@H]2CC[C@]2(C)[C@@H](C(=O)Cn4nnc(C(F)(F)F)n4)CC[C@@H]32)C1 [SA-8] |  | 100 to 500% | 
CC[C@@]1(O)CC[C@H]2[C@@H](CC[C@@H]3[C@@H]2CC[C@]2(C)[C@@H](C(=O)Cn4nccn4)CC[C@@H]32)C1 [SP-2] | 100 to 500 nM | 100 to 500% | 
CC[C@@]1(O)CC[C@H]2[C@H](CC[C@@H]3[C@@H]2CC[C@]2(C)[C@@H](C(=O)Cn4ccnn4)CC[C@@H]32)C1 [SE-3] | 100 to 500 nM | 100 to 500% | 
Cc1nnnn1CC(=O)[C@H]1CC[C@H]2[C@@H]3CC[C@H]4C[C@@](O)(CF)CC[C@@H]4[C@H]3CC[C@]12C [SD-2] |  | 100 to 500% | 
Cc1cnn(CC(=O)[C@H]2CC[C@H]3[C@@H]4C[C@@H](F)[C@H]5C[C@](C)(O)CC[C@@H]5[C@H]4CC[C@]23C)n1 [SV-7] |  | 100 to 500% | 
Cc1cn(CC(=O)[C@H]2CC[C@H]3[C@@H]4C[C@@H](F)[C@H]5C[C@](C)(O)CC[C@@H]5[C@H]4CC[C@]23C)nn1 [SV-8] |  | > 500% | 
C[C@]12CC[C@H]3[C@@H](CC[C@H]4C[C@@](O)(C(F)F)CC[C@@H]43)[C@@H]1CC[C@@H]2C(=O)Cn1ccnn1 [SS-1] | 100 to 500 nM |  | 
